Measured values: US20240349723A1 (priority 2023, published 2024)
“Also recorded” adds a separate entry of the source. Read-outs that look alike come from different tables or passages of the source. Where a SMILES comes first, the peptide text is derived from it. Where no end group is shown, it is not given here.

Assays:
CLas = assay type: in vivo, Candidatus Liberibacter asiaticus
Diaphorina citri = assay type: in vivo; settings: for live adult psyllids collected from the ten leaves: after 21 day assay, 10 nymphs per excised leaf, peptides 1 mg/mL, PMB 0.5 mg/mL; for Nymph mortality of D. citri: dead psyllids counted daily, 21 days, FIG. 9
[1] = tested on: Liberibacter crescens strain BT-1
[2] = tested on: 'Candidatus Liberibacter asiaticus' (CLas); assay type: in vivo; settings: excised CLas-infected citrus leaves, 1 mg/ml, seven-day incubation, FIG. 5
[3] = adults developed on treated CLas-infected leaves, 21 days, FIG. 7

Q: With “VKCVLPRIARCIKYRCQCRN (listed as Medicago truncatula) [SEQ ID NO: 10]” as the compound, how does the “development of psyllid with more than 100 CLas cells per insect (high titer)” value (CLas; [3]) read?
A: completely blocking the development of psyllid with more than 100 CLas cells; also recorded: No highly infected adults develop

Q: What about the “number of infective Diaphorina citri adults that develop on treated leaves” value (CLas; leaf delivery, FIG. 7) of the same compound?
A: reduces the number of infective Diaphorina citri adults

Q: What about the “live adult psyllids collected from the ten leaves” value (Diaphorina citri) of the same compound?
A: 74

Q: For “QNLCVGSPLPLQCLKFICRC (listed as Medicago truncatula) [SEQ ID NO: 14]”, which “number of infective Diaphorina citri adults that develop on treated leaves” value (CLas; leaf delivery, FIG. 7) is on record?
A: reduces the number of infective Diaphorina citri adults

Q: And the “Nymph mortality of D. citri” value (Diaphorina citri)?
A: Nymph mortality observed

Q: LRFRSVFHIFASVLAVAKKH [compound 6] was tested. Which “Percent growth rate inhibition L. crescens” value ([1]; L. crescens strain BT-1, BM7 medium, final peptide 1 or 0.1 mg/ml, O.D. 600 nm over seven days) did it give?
A: 66.6%

Q: Which results are given for “YSSCATKEECKCPDNKRPAC (listed as Medicago truncatula) [SEQ ID NO: 8]”?
A: adult insects with more than 100 CLas cell equivalents per insect (CLas; count out of adults collected, 21 days, FIG. 7): 2/84; number of infective Diaphorina citri adults that develop on treated leaves (CLas; leaf delivery, FIG. 7): reduces the number of infective Diaphorina citri adults; live adult psyllids collected from the ten leaves (Diaphorina citri): 84

Q: Which results are given for “LYCNVGSHMECVKHQCKCIK (listed as Medicago truncatula) [SEQ ID NO: 11]”?
A: number of infective Diaphorina citri adults that develop on treated leaves (CLas; leaf delivery, FIG. 7): reduces the number of infective Diaphorina citri adults; Nymph mortality of D. citri (Diaphorina citri): Nymph mortality observed

Q: With CC[C@H](C)[C@H](NC(=O)[C@H](CC(N)=O)NC(=O)[C@@H](NC(=O)CNC(=O)[C@H](CCCNC(=N)N)NC(=O)[C@H](Cc1ccccc1)NC(=O)[C@H](CCC(N)=O)NC(=O)[C@@H]1CCCN1C(=O)[C@H](CS)NC(=O)[C@H](CC(=O)O)NC(=O)[C@H](CCCCN)NC(=O)[C@H](CC(=O)O)NC(=O)[C@H](CCCNC(=N)N)NC(=O)[C@H](CCCCN)NC(=O)[C@H](CS)NC(=O)CNC(=O)[C@@H](N)CCCNC(=N)N)C(C)C)C(=O)N[C@@H](CCCNC(=N)N)C(=O)N[C@@H](CS)C(=O)N[C@@H](CCCNC(=N)N)C(=O)O [compound 9] (H-RGCKRDKDCPQFRGVNIRCR-OH; N-terminus and C-terminus assumed) as the compound, how does the “Percent growth rate inhibition L. crescens” value ([1]; 0.1 mg/ml) read?
A: 65.4%

Q: What does the source list for “RGCKRDKDCPQFRGVNIRCR (listed as Medicago truncatula) [SEQ ID NO: 9]”?
A: development of psyllid with more than 100 CLas cells per insect (high titer) (CLas; in vivo): completely blocking the development of psyllid with more than 100 CLas cells; also recorded: No highly infected adults develop; number of infective Diaphorina citri adults that develop on treated leaves (CLas; in vivo): reduces the number of infective Diaphorina citri adults; live adult psyllids collected from the ten leaves (Diaphorina citri): 80

Q: Which results are given for “polymyxin B sulfate [PMB, reference compound]”?
A: CLas 16S transcript-to-gene ratio (CLas rRNA : CLas rDNA), CLas activity [2]: greater declines in detectable CLas activity; performance in the bacterial growth assays ([1]; positive growth inhibition control, 0.5 mg/ml): excellent performance as an antimicrobial peptide; development of psyllid with more than 100 CLas cells per insect (high titer) (CLas; [3]): prevented the development of high titer psyllid; CLas titer in the excised leaves (CLas; excised leaf acquisition assay, FIG. 6A, differences not statistically significant): reduced CLas titer in the excised leaves; live adult psyllids collected from the ten leaves (Diaphorina citri): 87
